Reference: PubChem BioAssay (NCI)
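Five compound concentrations were applied to cells in 96-well plates for 48 hours; endpoints were derived by simple linear interpolation of the resulting dose-response curve. GI50 is the concentration that inhibits growth by half. Definition used: TGI = concentration required for complete inhibition of growth.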

Assays:
Assay in all cases: growth of human tumour cells (NCI), 48 h
K-562 leukemia = test system: K-562 leukemia
UACC-62 melanoma = test system: UACC-62 melanoma
CCRF-CEM leukemia = test system: CCRF-CEM leukemia
RPMI-8226 leukemia = test system: RPMI-8226 leukemia
SK-MEL-28 melanoma = test system: SK-MEL-28 melanoma
SK-OV-3 ovarian = test system: SK-OV-3 ovarian
HCT-15 colon = test system: HCT-15 colon
SNB-19 CNS = test system: SNB-19 CNS
HOP-92 NSCLC = test system: HOP-92 NSCLC
OVCAR-4 ovarian = test system: OVCAR-4 ovarian
UO-31 renal = test system: UO-31 renal
LOX IMVI melanoma = test system: LOX IMVI melanoma
DU-145 prostate = test system: DU-145 prostate
SF-295 CNS = test system: SF-295 CNS
HT29 colon = test system: HT29 colon
SNB-75 CNS = test system: SNB-75 CNS
TK-10 renal = test system: TK-10 renal
NCI-H226 lung = test system: NCI-H226 lung
UACC-257 melanoma = test system: UACC-257 melanoma
SF-268 CNS = test system: SF-268 CNS
786-0 renal = test system: 786-0 renal
M14 melanoma = test system: M14 melanoma
HCT-116 colon = test system: HCT-116 colon
MDA-MB-435 = test system: MDA-MB-435
OVCAR-8 ovarian = test system: OVCAR-8 ovarian
SF-539 CNS = test system: SF-539 CNS
MCF7 breast = test system: MCF7 breast
A549 NSCLC = test system: A549 NSCLC
SK-MEL-5 melanoma = test system: SK-MEL-5 melanoma
IGROV1 ovarian = test system: IGROV1 ovarian
MALME-3M melanoma = test system: MALME-3M melanoma
RXF 393 renal = test system: RXF 393 renal
CAKI-1 renal = test system: CAKI-1 renal
HS 578T breast = test system: HS 578T breast
HOP-62 NSCLC = test system: HOP-62 NSCLC
SN12C renal = test system: SN12C renal
KM12 colon = test system: KM12 colon
EKVX NSCLC = test system: EKVX NSCLC
BT-549 breast = test system: BT-549 breast
MDA-MB-231 breast = test system: MDA-MB-231 breast
COLO 205 colon = test system: COLO 205 colon
T-47D breast = test system: T-47D breast
OVCAR-5 ovarian = test system: OVCAR-5 ovarian
HL-60(TB) leukemia = test system: HL-60(TB) leukemia
U251 CNS = test system: U251 CNS
NCI-H23 lung = test system: NCI-H23 lung
PC-3 prostate = test system: PC-3 prostate
ACHN renal = test system: ACHN renal
SR leukemia = test system: SR leukemia
A498 renal = test system: A498 renal
SW-620 colon = test system: SW-620 colon
SK-MEL-2 melanoma = test system: SK-MEL-2 melanoma
NCI-H522 lung = test system: NCI-H522 lung
NCI-H460 lung = test system: NCI-H460 lung
MOLT-4 leukemia = test system: MOLT-4 leukemia
HCC-2998 colon = test system: HCC-2998 colon
NCI/ADR-RES ovarian = test system: NCI/ADR-RES ovarian

## COC(=O)C[Se]C(=O)Cc1c(C)n(C(=O)c2ccc(Cl)cc2)c2ccc(OC)cc12
K-562 leukemia
  GI50: 5.3 µM
  TGI: > 100 µM
UACC-62 melanoma
  GI50: 2.85 µM
  TGI: 14 µM
CCRF-CEM leukemia
  GI50: 3.04 µM
  TGI: 16.8 µM
RPMI-8226 leukemia
  GI50: 3.36 µM
  TGI: 22.9 µM
SK-MEL-28 melanoma
  GI50: 3.26 µM
  TGI: 12 µM
SK-OV-3 ovarian
  GI50: 5.57 µM
  TGI: 19.2 µM
HCT-15 colon
  GI50: 2.2 µM
  TGI: 6.03 µM
SNB-19 CNS
  GI50: 3.32 µM
  TGI: 12.4 µM
HOP-92 NSCLC
  GI50: 1.98 µM
  TGI: 4.27 µM
OVCAR-4 ovarian
  GI50: 2.27 µM
  TGI: 8.1 µM
UO-31 renal
  GI50: 1.52 µM
  TGI: 8.03 µM
LOX IMVI melanoma
  GI50: 1.81 µM
  TGI: 3.79 µM
DU-145 prostate
  GI50: 2.72 µM
  TGI: 8.01 µM
SF-295 CNS
  GI50: 2.21 µM
  TGI: 4.92 µM
HT29 colon
  GI50: 2.84 µM
  TGI: 8.17 µM
SNB-75 CNS
  GI50: 1.8 µM
  TGI: 4.17 µM
TK-10 renal
  GI50: 3.72 µM
  TGI: 18.2 µM
NCI-H226 lung
  GI50: 2.03 µM
  TGI: 6.53 µM
UACC-257 melanoma
  GI50: 2.17 µM
  TGI: 7.37 µM
SF-268 CNS
  GI50: 3.18 µM
  TGI: 12.3 µM
786-0 renal
  GI50: 2.64 µM
  TGI: 6.58 µM
M14 melanoma
  GI50: 1.64 µM
  TGI: 4.91 µM
HCT-116 colon
  GI50: 1.8 µM
  TGI: 4.21 µM
MDA-MB-435
  GI50: 1.75 µM
  TGI: 3.43 µM
OVCAR-8 ovarian
  GI50: 2.27 µM
  TGI: 6.22 µM
SF-539 CNS
  GI50: 2.7 µM
  TGI: 7.69 µM
MCF7 breast
  GI50: 2.57 µM
  TGI: 11.3 µM
A549 NSCLC
  GI50: 1.96 µM
  TGI: 4.63 µM
SK-MEL-5 melanoma
  GI50: 1.83 µM
  TGI: 3.42 µM
IGROV1 ovarian
  GI50: 2.1 µM
  TGI: 4.91 µM
MALME-3M melanoma
  GI50: 1.81 µM
  TGI: 5.31 µM
RXF 393 renal
  GI50: 1.73 µM
  TGI: 5.28 µM
CAKI-1 renal
  GI50: 2.63 µM
  TGI: 6.85 µM
HS 578T breast
  GI50: 2.33 µM
  TGI: 8.84 µM
HOP-62 NSCLC
  GI50: 1.74 µM
  TGI: 4.14 µM
SN12C renal
  GI50: 3.09 µM
  TGI: 10.9 µM
KM12 colon
  GI50: 3.06 µM
  TGI: 12.6 µM
EKVX NSCLC
  GI50: 1.71 µM
  TGI: 4.26 µM
BT-549 breast
  GI50: 1.91 µM
  TGI: 4.21 µM
MDA-MB-231 breast
  GI50: 2.27 µM
  TGI: 5.89 µM
COLO 205 colon
  GI50: 1.83 µM
  TGI: 4.4 µM
T-47D breast
  GI50: 7.32 µM
  TGI: 38 µM
OVCAR-5 ovarian
  GI50: 2.21 µM
  TGI: 6 µM
HL-60(TB) leukemia
  GI50: 2.9 µM
  TGI: 19.7 µM
U251 CNS
  GI50: 2.38 µM
  TGI: 5.8 µM
NCI-H23 lung
  GI50: 2.41 µM
  TGI: 6.41 µM
PC-3 prostate
  GI50: 3.91 µM
  TGI: 15.5 µM
ACHN renal
  GI50: 3.36 µM
  TGI: 10.2 µM
SR leukemia
  GI50: 3.74 µM
  TGI: > 100 µM
A498 renal
  GI50: 2.43 µM
  TGI: 6.36 µM
SW-620 colon
  GI50: 2.03 µM
  TGI: 4.39 µM
SK-MEL-2 melanoma
  GI50: 2.44 µM
  TGI: 7.79 µM
NCI-H522 lung
  GI50: 9.61 µM
  TGI: 28.8 µM
NCI-H460 lung
  GI50: 2.62 µM
  TGI: 8.34 µM
MOLT-4 leukemia
  GI50: 5.29 µM
  TGI: 90.1 µM
HCC-2998 colon
  GI50: 4.96 µM
  TGI: 16.9 µM
NCI/ADR-RES ovarian
  GI50: 2.41 µM
  TGI: 6.92 µM
